IC50 data for 33 compounds are collected here from patent publication US8304422B2, “Compositions and methods for inhibition of the JAK pathway” (Rigel Pharmaceuticals, Inc., priority 2007, dated 2012).

For this assay, the system named is BaF3 V617F cells; UKE-1. The assay is described as follows: Proliferation Assay (Cell Titer-Glo; Example 7). The note with it: proliferation 72 hours, inhibit JAK2 activity, cell line (BaF3 V617F or UKE-1) not stated. Type of assay: cell-based. A digest of the protocol:
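BaF3 V617F cells (RPMI, 10% FBS) and UKE-1 cells (Iscove's DMEM, 10% FBS, 10% equine serum, 1 uM hydrocortisone) were exposed to 3-fold serially diluted compound in duplicate for 72 hours at 37 °C. Viable cell number quantified by Cell Titer-Glo luminescence; IC50 reported.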
In general, IC50 refers to the midpoint of a concentration-inhibition curve. Higher therefore signals weaker potency in that assay. Regarding `CN1CCC(c2ccc(Nc3ncc(Cl)c(Nc4cccc(S(=O)(=O)NC(C)(C)C)c4)n3)cc2)CC1` [I-17, 5-Chloro-N4-[3-(N-tert-butylsulfonyl)phenyl]-N2-[4-(N-methylpiperidin-4-yl)phenyl]-2,4-pyrimidinediamine], the half-inhibitory concentration (IC50) is 990 nM.

`COc1c(C)cc(Nc2ncc(Cl)c(Nc3ccc(CNS(N)(=O)=O)cc3)n2)cc1C` [II-146, N4-[4-(Aminosulfonylamino)methylphenyl]-5-chloro-N2-(3,5-dimethyl-4-methoxyphenyl)-2,4-pyrimidinediamine] came in with a 50% inhibitory concentration (IC50) of 225 nM.

Regarding `CCc1cnc(Nc2cc(Cl)c(OC)c(Cl)c2)nc1Nc1ccc(CNS(=O)(=O)C2CC2)cc1` [II-84, N4-[4-(N-Cyclopropylsulfonylamino)methylphenyl]-N2-(3,5-dichloro-4-methoxyphenyl)-5-ethyl-2,4-pyrimidinediamine], the IC50 came to 38300 nM.

Take `CCNS(=O)(=O)NCc1ccc(Nc2nc(Nc3cc(Cl)c(OC)c(Cl)c3)ncc2C)cc1` [II-119, N2-[3,5-Dichloro-4-methoxyphenyl]-N4-[(4-(ethylamino)sulfonylamino)methylphenyl]-5-methyl-2,4-pyrimidinediamine]: the IC50 turned out to be 1360 nM.

`CCS(=O)(=O)N1CCc2c(cccc2Nc2nc(Nc3ccc(N4CCN(C)CC4)nc3)ncc2Cl)C1` [VI-3, 5-Chloro-N2-[6-(4-methyl-1-piperazinyl)-3-pyridinyl]-N4-[1,2,3,4-tetrahydro-2-(ethylsulfonyl)-5-isoquinolinyl]-2,4-pyrimidinediamine]: the concentration for half-maximal inhibition (IC50) was found to be 1270 nM.

`Cc1cnc(Nc2ccc(N3CCN(C)CC3)cc2)nc1Nc1ccc2c(c1)C(NS(=O)(=O)C1CC1)CC2` (racemic) [V-4, (+/−)-N4-[1-(Cyclopropylsulfonylamino)indan-6-yl]-5-methyl-N2-[4-(4-methyl-1-piperazinyl)phenyl]-2,4-pyrimidinediamine] gave an IC50 of 686 nM.

The compound `Cc1cc(CNS(=O)(=O)NC2CC2)ccc1Nc1nc(Nc2ccc(N3CCN(C)CC3)cc2)ncc1Cl` [II-180, 5-Chloro-N4-[2-methyl-4-((N-cyclopropylamino)sulfonylamino)methylphenyl]-N2-[4-(4-methyl-1-piperazinyl)phenyl]-2,4-pyrimidinediamine] displayed a half-maximal inhibitory concentration (IC50) of 633 nM.

Take `Cc1cnc(Nc2cc(C)c(OC(C)C)c(C)c2)nc1Nc1ccc(CNS(=O)(=O)C2CC2)cc1` [II-219, 5-Methyl-N4-[4-(N-cyclopropylsulfonylamino)methylphenyl]-N2-[3,5-dimethyl-4-(2-propoxy)phenyl]-2,4-pyrimidinediamine]: it took 114 nM to reach half-maximal inhibition (IC50).

Compound “5-Bromo-N4-[3-(N-tert-butylsulfonyl)phenyl]-N2-[4-(4-methylpiperazine)-phenyl]-2,4-pyrimidinediamine [I-18]” displayed an IC50 of 832 nM.

`CCCN1CCN(c2ccc(Nc3ncc(Cl)c(Nc4ccc(CCNS(=O)(=O)C5CC5)cc4)n3)c(C(F)(F)F)c2)CC1` [II-54, 5-Chloro-N4[4-(N-cyclopropylsulfonylamino)ethylphenyl]-N2-[4-(4-propylpiperazino)-2-trifluoromethylphenyl]-2,4-pyrimidinediamine] gave a half-inhibitory concentration (IC50) of 1970 nM.

“5-Chloro-N4-[3-(N-tert-butylsulfonyl)phenyl]-N2-[3,5-dimethyl-4-(2-(1-morpholino)ethoxyphenyl]-2,4-pyrimidinediamine [I-21]” gave an IC50 of 243 nM.

The compound `Cc1cnc(Nc2cc(C)c(C)c(C)c2)nc1Nc1ccc2c(c1)S(=O)(=O)NCC2` [VII-8, 5-Methyl-N4-[3,4-dihydro-1,1-dioxide-2H-1,2-benzothiazin-7-yl]-N2-[3,4,5-trimethylphenyl]-2,4-pyrimidinediamine] showed an IC50 of 1610 nM.

`CCOc1c(C)cc(Nc2ncc(C)c(Nc3ccc(CNS(=O)(=O)NC4CC4)cc3)n2)cc1C` [II-163, N4-[4-((N-Cyclopropylamino)sulfonylamino)methylphenyl]-N2-(3,5-dimethyl-4-ethoxyphenyl)-5-methyl-2,4-pyrimidinediamine] showed a concentration for half-maximal inhibition (IC50) of 63.6 nM. Compared with the last compound, the IC50 is about 25-fold lower.

Turning to `COc1cc(Nc2ncc(Cl)c(Nc3cccc(CNS(=O)(=O)C4CC4)c3)n2)cc(OC)c1OC` [II-189, 5-Chloro-N4-[3-(N-cyclopropylsulfonylamino)methylphenyl]-N2-[3,4,5-trimethoxyphenyl]-2,4-pyrimidinediamine], inhibition was half-maximal at 546 nM (IC50).

For “5-Chloro-N4-[4-(N-cyclopropylsulfonylamino)methylphenyl]-N2-[4-[N-(methansulfonyl)piperizin-4-ylphenyl]-2,4-pyrimidinediamine [II-207]”, the IC50 was found to be 384 nM.

In turn, `Cc1cnc(Nc2cnccc2N2CCN(C)CC2)nc1Nc1ccc(CNS(=O)(=O)C2CC2)cc1` [II-215, 5-Methyl-N4-[4-(N-cyclopropylsulfonylamino)methylphenyl]-N2-[4-(N-methylpiperizin-4-yl)pyridine-3-yl]-2,4-pyrimidinediamine] had a 50% inhibitory concentration (IC50) of 1520 nM.

As to `CCc1cnc(Nc2cc(C)c(OC)c(OC)c2)nc1Nc1ccc(CNS(=O)(=O)C2CC2)cc1` [II-82, N4-[4-(N-Cyclopropylsulfonylamino)methylphenyl]-N2-(3,4-dimethoxy-5-methylphenyl)-5-ethyl-2,4-pyrimidinediamine], half-maximal inhibition (IC50) required 797 nM.

`CCOc1c(C)cc(Nc2ncc(Cl)c(Nc3ccc(CNS(=O)(=O)NC4CC4)cc3C)n2)cc1C` [II-176, 5-Chloro-N2-(3,5-dimethyl-4-ethoxyphenyl)-N4-[2-methyl-4-((N-cyclopropylamino)sulfonylamino)methylphenyl]-2,4-pyrimidinediamine] yielded a half-inhibitory concentration (IC50) of 190 nM.

With `CCNS(=O)(=O)NCc1ccc(Nc2nc(Nc3cc(C)c(OC)c(Cl)c3)ncc2Cl)cc1` [II-110, 5-Chloro-N2-(3-chloro-4-methoxy-5-methylphenyl)-N4-[(4-(ethylamino)sulfonylamino)methylphenyl]-2,4-pyrimidinediamine], the half-inhibitory concentration (IC50) is 601 nM.

Compound `CCNS(=O)(=O)NCc1ccc(Nc2nc(Nc3cc(OC)c(OC)c(OC)c3)ncc2C)cc1` [II-120, N4-[(4-(Ethylamino)sulfonylamino)methylphenyl]-5-methyl-N2-(3,4,5-trimethoxyphenyl)-2,4-pyrimidinediamine] gave an IC50 of 871 nM. The IC50 values of the last two compounds are within 1.5-fold of each other.

In the case of `Cc1cc(N2CCN(C)CC2)ccc1Nc1ncc(C)c(Nc2ccc(CCNS(=O)(=O)C3CC3)cc2)n1` [II-68], the half-inhibitory concentration (IC50) amounted to 4140 nM.

Take `COc1cc(Nc2ncc(Cl)c(Nc3ccc(CNS(=O)(=O)NC4CC4)cc3)n2)cc(C)c1OC` [II-158, 5-Chloro-N4-[4-((N-cyclopropylamino)sulfonylamino)methylphenyl]-N2-(3,4-dimethoxy-5-methylphenyl)-2,4-pyrimidinediamine]: inhibition was half-maximal at 158 nM (IC50). This IC50 lies about 26-fold lower than the previous one.

Compound `COc1c(C)cc(Nc2ncc(C)c(Nc3ccc(CNS(=O)(=O)C4CC4)cc3)n2)cc1C` [II-201, 5-Methyl-N4-[4-(N-cyclopropylsulfonylamino)methylphenyl]-N2-[3,5-dimethyl-4-methoxyphenyl]-2,4-pyrimidinediamine] had an IC50 of 174 nM.

`Cc1cc(Nc2ncc(Cl)c(Nc3ccc(CNS(N)(=O)=O)cc3)n2)ccc1N1CCN(C)CC1` [II-149, N4-[4-(Aminosulfonylamino)methylphenyl]-5-chloro-N2-[3-methyl-4-(4-methyl-1-piperazinyl)phenyl]-2,4-pyrimidinediamine] yielded a half-maximal inhibitory concentration (IC50) of 1040 nM.

For `CCNS(=O)(=O)NCc1ccc(Nc2nc(Nc3ccc(C4CCN(C)CC4)cc3)ncc2Cl)cc1` [II-115, 5-chloro-N4-[(4-(ethylamino)sulfonylamino)methylphenyl]-N2-[4-(1-methyl-4-piperidinyl)pheny]-2,4-pyrimidinediamine], the half-maximal inhibitory concentration (IC50) amounted to 409 nM.

“5-Chloro-N4-[4-(N-cyclopropylsulfonylamino)methylphenyl]-N2-[5-methyl-4-(N-methylpiperizin-4-yl)pyridin-3-yl]-2,4-pyrimidinediamine [II-225]” registered an IC50 of 120 nM.

With `CCNS(=O)(=O)NCc1ccc(Nc2nc(Nc3ccc(N4CCN(C)CC4)cc3)ncc2Cl)c(C)c1` [II-144, 5-Chloro-N4-[2-methyl-4-(ethylaminosulfonylamino)methylphenyl]-N2-[4-(4-methyl-1-piperazinyl)phenyl]-2,4-pyrimidinediamine], the IC50 was found to be 549 nM.

“5-Chloro-N4-[4-(N-cyclopropylsulfonylamino)methylphenyl]-N2-[3,4-dimethyl-4-(2-(4-morpholinyl)ethoxy)phenyl]-2,4-pyrimidinediamine [II-160]” came in with a 50% inhibitory concentration (IC50) of 29.9 nM.

`Cc1cc(Nc2ncc(Cl)c(Nc3ccc4c(c3)S(=O)(=O)NCC4)n2)cc(C)c1C` [VII-9, 5-Chloro-N4-[3,4-dihydro-1,1-dioxide-2H-1,2-benzothiazin-7-yl]-N2-[3,4,5-trimethylphenyl]-2,4-pyrimidinediamine] returned a 50% inhibitory concentration (IC50) of 1340 nM.

Compound `COc1c(C)cc(Nc2ncc(C)c(Nc3ccc(CNS(=O)(=O)NC4CC4)cc3)n2)cc1C` [II-162, N4-[4-((N-Cyclopropylamino)sulfonylamino)methylphenyl]-N2-(3,5-dimethyl-4-methoxyphenyl)-5-methyl-2,4-pyrimidinediamine] had an IC50 of 134 nM.

Compound `CCNS(=O)(=O)NCc1ccc(Nc2nc(Nc3ccc(N4CCN(C)CC4)cc3)ncc2Cl)cc1` [II-114, 5-Chloro-N4-[(4-(ethylamino)sulfonylamino)methylphenyl]-N2-[4-(4-methyl-1-piperazinyl)phenyl]-2,4-pyrimidinediamine] registered an IC50 of 180 nM.

The compound `COc1cc(Nc2ncc(C)c(Nc3ccc(CNS(=O)(=O)N(C)C)cc3)n2)cc(OC)c1OC` [II-103, N4-[(4-(Dimethylamino)sulfonylamino)methylphenyl]-5-methyl-N2-(3,4,5-trimethoxyphenyl)-2,4-pyrimidinediamine] returned an IC50 of 509 nM.

`Cc1cc(Nc2ncc(Cl)c(Nc3ccc(CNS(=O)(=O)NC4CC4)cc3)n2)cc(C)c1OC(C)C` [II-156, 5-Chloro-N4-[4-((N-cyclopropylamino)sulfonylamino)methylphenyl]-N2-(3,5-dimethyl-4-(1-methyl)ethoxyphenyl)-2,4-pyrimidinediamine] returned an IC50 of 58.1 nM. Against the preceding compound, the IC50 is about 8.8-fold lower.
